Assay results taken from US20200147058A1, “KRAS INHIBITOR FOR USE IN TREATING CANCER” (Friedrich-Alexander-Universitat Erlangen-Numberg, priority 2016, published 2020).

How the values were obtained:
[1] = test system: murine hepatoma cell line Hepa129; assay: cell cycle FACS analysis (propidium iodide staining); assay type: cell-based; conditions: 5-6 hours of treatment
Text: FIG. 13 depicts Deltarasin Inducing G2/M-Cell Cycle Arrest in Murine HCC Cells.

[2] = test system: melanoma cells; assay: lactate dehydrogenase (LDH) quantification in cell supernatants after low dose DR; assay type: cell-based, human; conditions: low dose DR (2 μM), 24 hours
[3] = test system: HepG2 hepatoma cells; assay: Annexin V / PI staining with FACS analysis of apoptosis; assay type: cell-based, human; conditions: 8 μM
[4] = test system: Mel Juso cells; assay: FACS analysis of apoptosis (Annexin / propidium iodide); assay type: cell-based, human
Text: (§1) FIGS. 4A through 4H depict that small Molecule KRAS Inhibition Reduces Proliferation and Induces Apoptosis in Melanoma. FIGS. 4A and 4B show proliferation (slope of cell index) of Mel Juso (FIG. 4A) and Mel Im (FIG. 4B) cells treated with DMSO and different concentrations of the KRAS small molecule inhibitor Deltarasin (DR). The cell index as dimensionless parameter for cell proliferative ability was used to determine the half maximal inhibitory concentration (IC50, small graphs) of DR. […] FIG. 4D illustrates exemplary images of different melanoma cell lines (Mel Im, Mel Juso and Mel Ei) treated with 5 μM DR or 5 μM DMSO, respectively, for 24 hours. FIGS. 4E and 4F show images of fibroblast cell lines derived from two different donors (F1, F2) and melanocytes (NHEM) treated DR (20 μM, 48 hours) or DMSO (FIG. 4E), and lactate dehydrogenase (LDH) quantification (FIG. 4F) in cell supernatants (optic density, OD) of NHEM after treatment with low dose DMSO, DR (5 μM), and DR (10 μM), respectively.
(§2) FIGS. 5A through 5D show time-dependent measurement of colony diameters (exemplary data in top panels) in three-dimensional, anchorage-independent “colony-forming” assays (FIGS. 5A and 5B: Mel Im, FIGS. 5C and 5D: Mel Juso). Exemplary Images (middle) and corresponding quantification of colony diameters (bottom panels, summarized data of n=3 experiments at day 19 after seeding) are also depicted. Treatments were performed in four different groups (10 μM DMSO, 5 μM Deltarasin=DR, M PLX-4032=PLX (vemurafenib), or combination of 10 μM PLX+[…]). Effects on i) colony formation (FIGS. 5A and 5C, treatment at day 1) and ii) proliferation of pre-formed colonies (FIGS. 5B and 5D, treatment at day 7 and 13) were analyzed. […] FIG. 5F show images of PLX-primary resistant Mel Juso cells treated with DMSO, DR (5 μM), high dose PLX (20 μM) and a combination of 5 μM DR+10 μM PLX for 24 hours. […] Cells were treated for 5 hours with DMSO, 5 μM Deltarasin (DR), 10 μM PLX, or a combination of 10 μM PLX and 5 μM DR. According to exemplary images for Annexin and propidium iodide (PI) staining are depicted for Mel Im. (FIG. 5H) Mel Im and Mel Juso were transfected with control si-RNA (si-CTR) or with si-KRAS (si-KR). Two subgroups (blue and red) were additionally treated with 10 μM PLX (Vemurafenib) for 24 hours, with subsequent flow cytometric quantification of tumor cell apoptosis according to FIG. 5G. Exemplary images for Annexin and propidium iodide (PI) staining are depicted for Mel Im.

[5] = test system: Mel Im cells; assay: as above; assay type: cell-based, human
Text: as §1, §2

[6] = test system: Htz19 melanoma cells; assay: FACS analysis of apoptosis; assay type: cell-based, human; conditions: 5 hours, 5 μM DR
[7] = test system: normal human epidermal melanocytes (NHEM); assay: toxicity in non-tumor cells (images, LDH); assay type: cell-based; conditions: doses up to 20 μM
Text: as §1

[8] = test system: human fibroblast cell lines; assay: toxicity in non-tumor cells (images); assay type: cell-based; conditions: doses up to 20 μM, 48 hours
Text: as §1

[9] = test system: pancreatic adenocarcinoma cells; conditions: Zimmermann et al., 2013; cited from earlier work
[10] = test system: Htz19 melanoma cells; assay: three-dimensional colony formation assay; assay type: cell-based, human; conditions: Htz19 (BRAFi primary sensitive); DR 5 μM, PLX 10 μM, alone or combined
[11] = test system: Hep3B; assay: real-time cell proliferation assay; assay type: cell-based, human; conditions: DR doses
[12] = test system: Mel Juso cells; assay: three-dimensional, anchorage-independent colony-forming assay; assay type: cell-based, human; conditions: Mel Juso (BRAFi primary resistant); DR 5 μM, PLX 10 μM, alone or combined
Text: FIGS. 5A through 5D show time-dependent measurement of colony diameters (exemplary data in top panels) in three-dimensional, anchorage-independent “colony-forming” assays (FIGS. 5A and 5B: Mel Im, FIGS. 5C and 5D: Mel Juso). Exemplary Images (middle) and corresponding quantification of colony diameters (bottom panels, summarized data of n=3 experiments at day 19 after seeding) are also depicted. […] Effects on i) colony formation (FIGS. 5A and 5C, treatment at day 1) and ii) proliferation of pre-formed colonies (FIGS. 5B and 5D, treatment at day 7 and 13) were analyzed. […] Cells were treated for 5 hours with DMSO, 5 μM Deltarasin (DR), 10 μM PLX, or a combination of 10 μM PLX and 5 μM DR. […] (FIG. 5H) Mel Im and Mel Juso were transfected with control si-RNA (si-CTR) or with si-KRAS (si-KR). Two subgroups (blue and red) were additionally treated with 10 μM PLX (Vemurafenib) for 24 hours, with subsequent flow cytometric quantification of tumor cell apoptosis according to FIG. 5G.

[13] = 5 hours, 5 μM DR, 10 μM PLX or combination

## c1ccc(Cn2c(-c3ccc(OC[C@H](C4CCNCC4)n4c(-c5ccccc5)nc5ccccc54)cc3)nc3ccccc32)cc1 [Deltarasin, (S)-1-Benzyl-2-(4-(2-(2-phenyl-1H-benzo[d]imidazol-1-yl)-2-(piperidin-4-yl)ethoxy)phenyl)-1H-benzo[d]imidazole]
[1]
  G2/M-Cell Cycle Arrest: dose-dependently induces
  SubG1 fractions: increased
[2]
  lactate dehydrogenase (LDH) amounts in cell supernatants: sufficient to increase lactate dehydrogenase (LDH) amounts
[3]
  induction of apoptosis (FACS): marked dose-dependent induction of apoptosis
[4]; 5 μM for 8, 16 and 24 hours
  induction of apoptosis (FACS): marked time-dependent induction of apoptosis
[4]; [13]
  apoptosis (FACS), short treatment: did not induce apoptosis
[5]; 5 μM for 8, 16 and 24 hours
  induction of apoptosis (FACS): marked time-dependent induction of apoptosis
[5]; [13]
  apoptosis (FACS), short treatment: only slightly induced apoptosis
[6]
  apoptosis (FACS), short treatment: only slightly induced apoptosis
[7]
  toxic effects in normal human epidermal melanocytes (NHEM): no toxic effects
[8]
  toxic effects in human fibroblast cell lines: no toxic effects
[9]
  proliferation of pancreatic adenocarcinoma cells: reduce proliferation
[10]
  three-dimensional colony formation and proliferation of pre-formed colonies: similarly effective as PLX
[11]
  inhibition of proliferation: strong dose-dependent inhibition of proliferation
[12]
  three-dimensional colony formation and colony proliferation: markedly inhibited
